How the values were obtained:
[1] = system: HT-29 cells (colon carcinoma); experiment: MTT cell viability assay, HT-29; assay type: cell-based; conditions: Homo sapiens, 48 h, MTT, read-out: cell viability, percentage of live cells; for viability at 10 µM: HT-29, 10 µM; for viability at 50 µM: HT-29, 50 µM
Description: (§1) Cell lines were purchased from the American Type Culture Collection (ATCC). MCF-7, HTB-54, BEAS-2B and 184B5 cell lines were grown in RPMI 1640 medium (Gibco) supplemented with 10% fetal bovine serum (FBS; Gibco), 100 units/mL penicillin, and […] streptomycin (Gibco). HT-29 and HCT-116 cell lines was cultured in McCoy’s 5A (Gibco), 10% FBS, 100 units/mL penicillin, and 100 μg/mL streptomycin. Cells were maintained at 37 °C and 5% CO2. Culture medium was replaced every three days.
(§2) A cell viability assay of each compound was carried out using an MTT assay. Each selenourea was dissolved in dimethyl sulfoxide (DMSO) at a concentration of 0.01 M. Serial dilutions were prepared with non-supplemented culture medium. Cytotoxic activity of each selenourea was determined at two different concentrations (10 and 50 µM) in MCF-7, HTB-54, and HT-29 cells. In addition, selected compounds were tested at seven different concentrations (0.1, 1, 5, 10, 25, 50, 100 µM) on MCF-7, HT-29, HCT-116, HTB-54, 184B5, and BEAS-2B cells. The number of passages before defrosting the cells was 3, and they were kept under culture up to a maximum of 15.
(§3) Briefly, 1 × 10^4 cells/well were grown in 96-well plates for 24 h. Then, these cells were incubated with either DMSO (negative control) at 5 µM or a different concentration of each tested selenourea for 48 h. A volume of 20 µL of MTT was added 150 min before the termination point to measure cellular viability. After this time, culture medium was removed. The resultant formazan crystals were dissolved in 50 µL of DMSO, and absorbance was measured at 570 nm. Results are expressed as IC50, the half maximal inhibitory concentration. This value was calculated using GraphPad Prism 7 software by nonlinear curve fitting. Furthermore, the selectivity index (SI) was calculated as the ratio of the IC50 values determined for the non-malignant and the tumoral cells (IC50 (184B5)/IC50 (MCF-7) or (IC50 (BEAS-2B)/IC50 (HTB-54). Data were obtained from at least three independent experiments performed in triplicates.
(§4) The cytotoxic effects of synthesized compounds were evaluated against three human cancer cell lines: breast adenocarcinoma (MCF-7), lung adenocarcinoma (HTB-54), and colon carcinoma (HT-29), using a 3-[4,5-dimethylthiazol-2-yl]-2,5-diphenyltetrazolium bromide (MTT) assay. Firstly, the compounds were screened at two doses (50 and 10 µM) and after 48 h of treatment. The results are summarized in Figure 4 and are presented as percentages of growth inhibition related to control.

[2] = DPPH radical scavenging assay; conditions: for DPPH radical scavenging kinetics: 0.03 mg/mL, time-point 0 min; for DPPH radical scavenging capacity compared with ascorbic acid: at lower concentrations
Description: (§5) From all the methods available for the prediction of the antioxidant properties, DPPH^● and ABTS^●+ assays were chosen according to their simplicity, accessibility, and effectiveness for a fast prediction of radical scavenging activities in vitro. The radical scavenging capacity of the novel selenoureas was determined by DPPH^● and ABTS^●^+ assays. Measurements were recorded on a BioTeck PowerWave XS spectrophotometer (BioTeck Instruments, Winooski (VT), USA) and the data were collected using KCJunior software (BioTeck Instruments, Winooski (VT), USA).
A DPPH assay was performed, as described by Svinyarov. Stock solutions of 1 mg/mL were initially prepared for each selenourea in methanol and this solution was used for the preparation of the different concentrations employed in the assay. Ascorbic acid (Asc) was used as positive control due to the literature reports that this derivative is a potent antioxidant and radical scavenger. A volume of 100 µL from a previously prepared stock solution (preserved in dark and daily prepared) of DPPH (100 µM) in methanol were added to 100 µL of the methanolic selenoureas solutions prepared previously, and the antioxidant activity these compounds was assessed by its ability to decolorize DPPH● radical (purple color in methanol) to DPPHH (colorless). Thus, radical scavenging activity was estimated by the decrease in the absorbance at 517 nm. Determinations were recorded at different time-points. All the measurements were carried out in triplicate. Results are expressed as the percentage of the radicals scavenged, calculated using the following formula:(1) % DPPH radical scavenging=Acontrol − Asample/Acontrol × 100 where Acontrol refers to the absorbance of the negative control and Asample refers to the absorbance of the tested compounds. Results are expressed as percentage of DPPH radical scavenging ± SD.
In order to determine the radical scavenging of these newly synthesized selenourea derivatives, the DPPH assay was firstly employed. Measurements were performed at four different concentrations ranging from 0.0003 to 0.03 mg/mL, and collected at time-points between 0 min and 120 min (Figures S81–S100). Results are presented as the percentage of inhibition for DPPH radical scavenging activity.

[3] = system: HTB-54 cells (lung adenocarcinoma); experiment: MTT cell viability assay, HTB-54; assay type: cell-based, human; conditions: Homo sapiens, 48 h, MTT, read-out: cell viability, percentage of live cells; for viability at 10 µM: HTB-54, 10 µM; for viability at 50 µM: HTB-54, 50 µM
Description: as §1, §2, §3, §4

[4] = system: MCF-7 cells (breast adenocarcinoma); experiment: MTT cell viability assay, MCF-7; assay type: cell-based, human; conditions: Homo sapiens, MCF7, 48 h, MTT, read-out: cell viability, percentage of live cells; for viability at 10 µM: MCF-7, 10 µM; for viability at 50 µM: MCF-7, 50 µM
Description: as §1, §2, §3, §4

[5] = ABTS radical scavenging assay; conditions: for ABTS radical scavenging kinetics: 0.03 mg/mL
Description: as §5
As well as DPPH, ABTS radical scavenging assay is a colorimetric method. ABTS (2,2′-azino-bis(3-ethylbenzothiazoline-6-sulfonic acid) was dissolved in deionized water at 1 mg/mL and oxidized to ABTS^●+ with potassium persulfate (2.45 mM final concentration). This oxidation process is not instantaneous, and the reaction mixture was kept in the dark overnight at room temperature. After ABTS^●+ radical was generated, the ABTS^●+ solution was diluted with 50% ethanol until an absorbance of 0.70 ± 0.02 at 734 nm for measurements was achieved. Stock solution of 1 mg/mL in absolute ethanol was prepared for each selenourea, and different dilutions were prepared to reach the final concentration, when 20 µL of this solution were added to 180 µL of the diluted ABTS^●+. The absorbance at 734 nm was recorded using 50% ethanol as blank. Trolox and Asc were used as positive controls. All determinations were carried out in triplicate. Same time intervals as in the DPPH assay were also measured. The ability to scavenge ABTS^●+ was calculated using the following formula:(2) % ABTS radical scavenging=Acontrol − Asample/Acontrol × 100 where Acontrol refers to the absorbance of the negative control and Asample refers to the absorbance of the tested compounds. The results are expressed as percentage of ABTS radical scavenging ± SD.
In order to confirm the antioxidant activity of the selenoureas, we performed an additional ABTS (2,2′-azino-bis(3-ethylbenzothiazoline-6-sulfonic acid) radical scavenging assay. Following the results obtained in the DPPH assay, this experiment was performed at 0.03 and 0.003 mg/mL. Measurements were recorded after 0′, 6′ and 60′ of incubation with ABTS. For comparison purposes, Trolox and ascorbic acid were used as references. The remarkable results are summarized in Figure 3.

Row | Structure (SMILES) | viability at 10 µM [1] | viability at 50 µM [1] | DPPH radical scavenging kinetics [2] | viability at 10 µM [3] | viability at 50 µM [3] | viability at 10 µM [4] | viability at 50 µM [4] | melting point | ABTS radical scavenging activity compared with Trolox ([5]; 0.003 mg/mL, 60 min) | DPPH radical scavenging capacity compared with ascorbic acid [2] | ABTS radical scavenging activity ([5]; 0.003 mg/mL, 60 min) | ABTS radical scavenging kinetics [5]
1 | COc1ccc(NC(=[Se])Nc2ccc3oc(=O)ccc3c2)cc1 [Compound 3c] | 58.2% | 34.3% | reaching the maximum activity at time-point 0′ | 61.6% | 9.7% | 73.9% | 17.4% | 159 °C | – | – | – | –
2 | CCCCCCNC(=[Se])Nc1ccc(Cl)cc1 [Compound 5d] | 69.1% | 42.5% | – | 81.4% | 57.2% | 81.3% | 17.3% | 110 °C | significant lower radical scavenging activity than Trolox | – | – | –
3 | N#Cc1ccc(NC(=[Se])Nc2ccc3oc(=O)ccc3c2)cc1 [Compound 3e] | 66.6% | 32.2% | reaching the maximum activity at time-point 0′ | 60.8% | 17.8% | 59.7% | 31.1% | 140 °C | significant lower radical scavenging activity than Trolox | – | – | –
4 | COc1ccc(NC(=[Se])NCc2nccs2)cc1 [Compound 2c] | 88.9% | 53.1% | – | 58.5% | 30.3% | 60% | 33.1% | 150 °C | – | greater radical scavenging capacity than ascorbic acid | above 90% | –
5 | CCCCNC(=[Se])Nc1ccc(Cl)cc1 [Compound 4d] | 64.4% | 46% | – | 58.1% | 38% | 50.3% | 34.1% | 116 °C | – | – | – | –
6 | Cc1c(C)c2c(c(C)c1O)CCC(C)(C(=O)O)O2 (centres unmarked) [Trolox, reference compound] | – | – | – | – | – | – | – | – | – | – | – | reached the maximal ABTS radical scavenging activity quickly
7 | CCCCCCNC(=[Se])Nc1ccc(C#N)cc1 [Compound 5e, N-hexyl-N´-(4-cyanophenyl)selenourea] | 59.1% | 40.4% | reaching the maximum activity at time-point 0′ | 80.2% | 23.3% | 68.5% | 14.7% | 125 °C | – | – | – | –
8 | Cc1ccc(NC(=[Se])NCc2nccs2)cc1 [Compound 2b] | 88.3% | 49.6% | – | 53.1% | 18.1% | 65.5% | 16.8% | 154 °C | – | greater radical scavenging capacity than ascorbic acid | – | –
9 | Cc1ccc(NC(=[Se])NCc2ccco2)cc1 [Compound 1b] | 66.2% | 43.1% | – | 52.1% | 21.6% | 64.8% | 12.4% | – | – | – | – | –
10 | Cc1ccc(NC(=[Se])Nc2ccc3oc(=O)ccc3c2)cc1 [Compound 3b] | 57.1% | 46.1% | reaching the maximum activity at time-point 0′ | 62.9% | 27.3% | 73.8% | 29.2% | 145 °C | – | – | – | –
11 | O=c1ccc2cc(NC(=[Se])Nc3ccc(Cl)cc3)ccc2o1 [Compound 3d] | 59.1% | 35.7% | reaching the maximum activity at time-point 0′ | 70.1% | 14% | 69.7% | 28.6% | 156 °C | – | – | – | –
12 | COc1ccc(NC(=[Se])NCc2ccco2)cc1 [Compound 1c] | 70.5% | 39.1% | – | 55.7% | 28.8% | 64% | 21.5% | 128 °C | – | – | – | –
13 | CCCCNC(=[Se])Nc1ccc(C#N)cc1 [Compound 4e] | 60.7% | 46.3% | reaching the maximum activity at time-point 0′ | 74.6% | 29.7% | 70.7% | 39% | 145 °C | – | – | – | –
14 | O=C1O[C@H]([C@@H](O)CO)C(O)=C1O [ascorbic acid, reference compound] | – | – | – | – | – | – | – | – | – | – | – | reached the maximal ABTS radical scavenging activity quickly
15 | CCCCCCNC(=[Se])Nc1ccc(OC)cc1 [Compound 5c] | 62.6% | 31.1% | – | 70.4% | 10.7% | 60.1% | 8.1% | 97 °C | – | – | – | –
16 | [Se]=C(NCc1ccco1)Nc1ccccc1 [Compound 1a] | 70.4% | 44.6% | – | 63.5% | 20.5% | 75.7% | 32.3% | 109 °C | – | – | – | –

Source: PMC8156206, “Novel N,N′-Disubstituted Selenoureas as Potential Antioxidant and Cytotoxic Agents” (Antioxidants, 2021)
